{
  "source": "patent US11339171B2",
  "about": "“MDM2 inhibitors” (Gan & Lee Pharmaceuticals, priority 2017, dated 2022)",
  "data": [
    {"target": "T1, MDM2 (Homo sapiens, UniProt Q00987)", "T1 construct": "made in house", "T1 sequence (Q00987 whole entry)": "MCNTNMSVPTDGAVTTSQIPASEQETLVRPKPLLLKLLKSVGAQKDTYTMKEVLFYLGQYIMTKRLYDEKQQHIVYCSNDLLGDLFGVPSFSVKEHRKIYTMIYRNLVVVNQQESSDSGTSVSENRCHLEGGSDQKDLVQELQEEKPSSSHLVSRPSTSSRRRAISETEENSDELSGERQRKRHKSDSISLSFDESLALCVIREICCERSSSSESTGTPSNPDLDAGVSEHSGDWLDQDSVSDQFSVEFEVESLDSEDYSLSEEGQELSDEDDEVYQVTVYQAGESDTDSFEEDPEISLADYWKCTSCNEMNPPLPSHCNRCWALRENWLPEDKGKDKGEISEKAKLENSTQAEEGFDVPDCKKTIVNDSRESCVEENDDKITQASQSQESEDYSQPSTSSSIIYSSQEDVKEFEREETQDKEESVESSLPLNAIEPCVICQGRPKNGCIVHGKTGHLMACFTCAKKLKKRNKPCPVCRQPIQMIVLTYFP", "test": "Inhibition test of MDM2-P53 (GST-MDM2, Biotin-P53, Anti-GST-Tb, SA-XL665)", "assay_type": "binding", "conditions": "not given", "method": "(§1) Experimental purpose: To determine the inhibitory activities of the compounds of the present invention on MDM2.\n(§2) The present experiment uses the following assay methods/instruments/reagents:\n(§3) Buffer: 1×PBS+0.1% BSA+5 mM DTT; MDM2 Buffer: Buffer+1 mM AEBSF\n(§4) GST-MDM2: The final concentration is 4 nM, and it is required to formulate a 20 nM (5×) solution. A mother liquor is diluted by 3500 folds, wherein the mother liquor is 10-fold diluted first, and then 350-fold diluted.\n(§5) Anti-GST-Tb: The final concentration is 2×, and a mother liquor is diluted by 50 folds.\n(§6) MIX: GST-MDM2, Biotin-P53, SA-XL665 and Anti-GST-Tb were mixed according to a ratio of 4:4:5:5.\n(§7) Sample: Preparation of a sample (10 mM in DMSO) solution: a. 3 μL sample+7 μL DMSO+20 μL DMSO were formulated to give an initial concentration of 1 mM and mixed well; b. in plate 1, twelve 5-fold serial dilutions (sequentially prepared by adding 10 μL of the last sample to 40 μL DMSO) were prepared and mixed well, individually; c. plate 2 was taken, 45 μL of Buffer was added to each well, and 5 μL of dilution at each concentration was taken from plate 1 and added to the corresponding well in plate 2 (the concentration in well 1 was 100 μM), and mixed well.\n(§8) 1. 18 μL of MIX was added to a 384-well plate, and centrifugation was performed at 4500 rpm for 5 min.\n(§9) 2. 2 μL of sample was added correspondingly to each well, the resultant was centrifuged at 25° C. and 4500 rpm for 5 min, and shaked at 25° C. for 90 min on a shaker.\n(§10) Readings were obtained from the Microplate reader, and data was processed by Graphpad Prism 6.0.", "units": {"IC50": "nM"}, "values": [
      {"smiles": "COc1ncc(-c2nc3c(n2C(C)C)C2(C(=O)Nc4cc(Cl)ccc42)N(c2cc(Cl)ccc2C(C)C)C3=O)c(OC)n1", "note": "(stereo not drawn) [Example 156, 6-chloro-5′-(5-chloro-2-isopropylphenyl)-2′-(2,4-dimethoxypyrimidin-5-yl)-3′-isopropyl-3′H-spiro[dihydroindole-3,4′-pyrrolo[3,4-d]imidazole]-2,6′(5′H)-dione]", "IC50": 11.2},
      {"smiles": "CCc1ccccc1-c1nc2c(n1C(C)C)[C@]1(C(=O)Nc3cc(Cl)ccc31)N(c1cc(Cl)ccc1C)C2=O", "note": "[Example R-7, (R)-6-chloro-5′-(5-chloro-2-methylphenyl)-2′-(2-ethylphenyl)-3′-isopropylisopropyl-3′H-spiro[dihydroindole-3,4′-pyrrolo[3,4-d]imidazole]-2,6′(5′H)-dione]", "IC50": 36000},
      {"smiles": "COc1ncncc1-c1nc2c(n1C(C)C)[C@]1(C(=O)Nc3cc(Cl)ccc31)N(c1cc(Cl)ccc1C)C2=O", "note": "[Example R-27, (R)-6-chloro-5′-(5-chloro-2-methylphenyl)-3′-isopropyl-2′-(4-methoxypyrimidin-5-yl)-3′H-spiro[dihydroindole-3,4′-pyrrolo[3,4-d]imidazole]-2,6′(5′H)-dione]", "IC50": 924},
      {"smiles": "COc1ncc(-c2nc3c(n2C2CC2)[C@]2(C(=O)Nc4cc(Cl)ccc42)N(c2cc(Cl)ccc2C)C3=O)c(OC)n1", "note": "[Example R-28, (R)-6-chloro-5′-(5-chloro-2-methylphenyl)-3′-cyclopropane-2′-(2,4-dimethoxypyrimidin-5-yl)-3′H-spiro[dihydroindole-3,4′-pyrrolo[3,4-d]imidazole]-2,6′(5′H)-dione]", "IC50": 3110},
      {"smiles": "CCc1ccc(OC)c(-c2nc3c(n2C(C)C)[C@]2(C(=O)Nc4cc(Cl)ccc42)N(c2cc(Cl)ccc2C)C3=O)c1", "note": "[Example R-37, (R)-6-chloro-5′-(5-chloro-2-methylphenyl)-2′-(5-ethyl-2-methoxyphenyl)-3′-isopropyl-3′H-spiro[dihydroindole-3,4′-pyrrolo[3,4-d]imidazole]-2,6′(5′H)-dione]", "IC50": 3110},
      {"smiles": "CCc1ccc(OC)c(-c2nc3c(n2C(C)C)[C@]2(C(=O)Nc4cc(Cl)ccc42)N(c2cccc(Cl)c2)C3=O)c1", "note": "[Example R-38, (R)-6-chloro-5′-(3-chlorophenyl)-2′-(5-ethyl-2-methoxyphenyl)-3′-isopropyl-3′H-spiro[dihydroindole-3,4′-pyrrolo[3,4-d]imidazole]-2,6′(5′H)-dione]", "IC50": 1120},
      {"smiles": "COc1ccc(-c2nc3c(n2C(C)C)[C@]2(C(=O)Nc4cc(Cl)ccc42)N(c2cc(Cl)cn(C)c2=O)C3=O)c(OC)c1", "note": "[Example R-39, (R)-6-chloro-5′-(5-chloro-1-methyl-2-oxo-1,2-dihydropyridin-3-yl)-2′-(2,4-dimethoxyphenyl)-3′-isopropyl-3′H-spiro[dihydroindole-3,4′-pyrrolo[3,4-d]imidazole]-2,6′(5′H)-dione]", "IC50": 1850},
      {"smiles": "COc1ncc(-c2nc3c(n2C2CCC2)[C@]2(C(=O)Nc4cc(Cl)ccc42)N(c2cc(Cl)ccc2C)C3=O)c(OC)n1", "note": "[Example R-41, (R)-6-chloro-5′-(5-chloro-2-methylphenyl)-3′-cyclobutyl-2′-(2,4-dimethoxypyrimidin-5-yl)-3′H-spiro[dihydroindole-3,4′-pyrrolo[3,4-d]imidazole]-2,6′(5′H)-dione]", "IC50": 7320},
      {"smiles": "COc1ccccc1-c1nc2c(n1C(C)C)[C@]1(C(=O)Nc3cc(Cl)ccc31)N(c1cc(Cl)cn(C)c1=O)C2=O", "note": "[Example R-43, (R)-6-chloro-5′-(5-chloro-1-methyl-2-oxo-1,2-dihydropyridin-3-yl)-3′-isopropyl-2′-(2-methoxyphenyl)-3′H-spiro[dihydroindole-3,4′-pyrrolo[3,4-d]imidazole]-2,6′(5′H)-dione]", "IC50": 130},
      {"smiles": "CNC(=O)c1ccc(-c2nc3c(n2C(C)C)[C@]2(C(=O)Nc4cc(Cl)ccc42)N(c2cc(Cl)ccc2C)C3=O)c(OC)c1", "note": "[Example R-54, (R)-4-(6-chloro-5′-(5-chloro-2-methylphenyl)-3′-isopropyl-2,6′-dioxo-5′,6′-dihydro-3′H-spiro[dihydroindole-3,4′-pyrrolo[3,4-d]imidazole]-2′-yl)-3-methoxy-N-methylbenzamide]", "IC50": 1960},
      {"smiles": "COc1ncc(-c2nc3c(n2C(C)C)[C@]2(C(=O)Nc4cc(Cl)ccc42)N(c2ccc(C(N)=O)c(Cl)c2)C3=O)c(OC)n1", "note": "[Example R-60, (R)-2-chloro-4-(6-chloro-2′-(2,4-dimethoxypyrimidin-5-yl)-3′-isopropyl-2,6′-dioxo-3′,6′-dihydro-5′H-spiro[dihydroindole-3,4′-pyrrolo[3,4-d]imidazole]-5′-yl)benzamide]", "IC50": 1070},
      {"smiles": "COc1ccc(N2C(=O)c3nc(-c4ccccc4OC)n(C(C)C)c3[C@]23C(=O)Nc2cc(Cl)ccc23)cc1Cl", "note": "[Example R-63, (R)-6-chloro-5′-(3-chloro-4-methoxyphenyl)-3′-isopropyl-2′-(2-methoxyphenyl)-3′H-spiro[dihydroindole-3,4′-pyrrolo[3,4-d]imidazole]-2,6′(5′H)-dione]", "IC50": 537}
    ]},
    {"target": "T1, MDM2", "test": "Inhibition test of MDM2-P53 (GST-MDM2, Biotin-P53, Anti-GST-Tb, SA-XL665)", "assay_type": "binding", "conditions": "labels are Example numbers; the compounds with S-configuration are meant", "method": "as §1, §2, §3, §4, §5, §6, §7, §8, §9, §10", "values": [
      {"smiles": "COc1nc(OCCF)ncc1-c1nc2c(n1C(C)C)C1(C(=O)Nc3cc(Cl)ccc31)N(c1cc(Cl)ccc1C)C2=O", "note": "(stereo not drawn) [Example 140, 6-chloro-5′-(5-chloro-2-methylphenyl)-2′-(2-(2-fluoroethoxy)-4-methoxypyrimidin-5-yl)-3′-isopropyl-3′H-spiro[dihydroindole-3,4′-pyrrolo[3,4-d]imidazole]-2,6′(5′H)-dione]", "inhibitory effect on MDM2 compared with positive control compound HDM201": "better"},
      {"smiles": "COc1cc(C(F)(F)F)ncc1-c1nc2c(n1C(C)C)C1(C(=O)Nc3cc(Cl)ccc31)N(c1cccc(Cl)c1)C2=O", "note": "(stereo not drawn) [Example 142, 6-chloro-5′-(3-chlorophenyl)-3′-isopropyl-2′-(4-methoxy-6-(trifluoromethyl)pyridin-3-yl)-3′H-spiro[dihydroindole-3,4′-pyrrolo[3,4-d]imidazole]-2,6′(5′H)-dione]", "inhibitory effect on MDM2 compared with positive control compound HDM201": "better"},
      {"smiles": "COc1cc(OCCO)ccc1-c1nc2c(n1C(C)C)C1(C(=O)Nc3cc(Cl)ccc31)N(c1cc(Cl)ccc1C)C2=O", "note": "(stereo not drawn) [Example 148, 6-chloro-5′-(5-chloro-2-methylphenyl)-2′-(4-(2-hydroxyethoxy)-2-methoxyphenyl)-3′-isopropyl-3′H-spiro[dihydroindole-3,4′-pyrrolo[3,4-d]imidazole]-2,6′(5′H)-dione]", "inhibitory effect on MDM2 compared with positive control compound HDM201": "better"},
      {"smiles": "COc1cc(OC(F)F)ncc1-c1nc2c(n1C(C)C)C1(C(=O)Nc3cc(Cl)ccc31)N(c1cc(Cl)ccc1C)C2=O", "note": "(stereo not drawn) [Example 150, 6-chloro-5′-(5-chloro-2-methylphenyl)-2′-(6-(difluoromethoxy)-4-methoxypyridin-3-yl)-3′-isopropyl-3′H-spiro[dihydroindole-3,4′-pyrrolo[3,4-d]imidazole]-2,6′(5′H)-dione]", "inhibitory effect on MDM2 compared with positive control compound HDM201": "better"},
      {"smiles": "COc1cc(C(F)(F)F)ncc1-c1nc2c(n1C(C)C)C1(C(=O)Nc3cc(Cl)ccc31)N(c1cc(Cl)cnc1C)C2=O", "note": "(stereo not drawn) [Example 152, 6-chloro-5′-(5-chloro-2-methylpyridin-3-yl)-3′-isopropyl-2′-(4-methoxy-6-(trifluoromethyl)pyridine-3-yl)-3′H-spiro[dihydroindole-3,4′-pyrrolo[3,4-d]imidazole]-2,6′(5′H)-dione]", "inhibitory effect on MDM2 compared with positive control compound HDM201": "better"},
      {"smiles": "COc1cc(OCCF)ncc1-c1nc2c(n1C(C)C)C1(C(=O)Nc3cc(Cl)ccc31)N(c1cc(Cl)ccc1C)C2=O", "note": "(stereo not drawn) [Example 163, 6-chloro-5′-(5-chloro-2-methylphenyl)-2′-(6-(2-fluoroethoxy)-4-methoxypyridin-3-yl)-3′-isopropyl-3′H-spiro[dihydroindole-3,4′-pyrrolo[3,4-d]imidazole]-2,6′(5′H)-dione]", "inhibitory effect on MDM2 compared with positive control compound HDM201": "better"},
      {"smiles": "COc1nc(OCCF)ncc1-c1nc2c(n1C(C)C)C1(C(=O)Nc3cc(Cl)ccc31)N(c1cc(Cl)cnc1C)C2=O", "note": "(stereo not drawn) [Example 170, 6-chloro-5′-(5-chloro-2-methylpyridin-3-yl)-2′-(2-(2-fluoroethoxy)-4-methoxypyrimidin-5-yl)-3′-isopropyl-3′H-spiro[dihydroindole-3,4′-pyrrolo[3,4-d]imidazole]-2,6′(5′H)-dione]", "inhibitory effect on MDM2 compared with positive control compound HDM201": "better"},
      {"smiles": "COc1cc(OCCF)ncc1-c1nc2c(n1C(C)C)C1(C(=O)Nc3cc(Cl)ccc31)N(c1cc(Cl)cnc1C)C2=O", "note": "(stereo not drawn) [Example 173, 6-chloro-5′-(5-chloro-2-methylpyridin-3-yl)-2′-(6-(2-fluoroethoxy)-4-methoxypyridin-3-yl)-3′-isopropyl-3′H-spiro[dihydroindole-3,4′-pyrrolo[3,4-d]imidazole]-2,6′(5′H)-dione]", "inhibitory effect on MDM2 compared with positive control compound HDM201": "better"},
      {"smiles": "COc1cc(OC)c(-c2nc3c(n2C(C)C)C2(C(=O)Nc4cc(Cl)ccc42)N(c2cc(F)cc(Cl)c2)C3=O)cn1", "note": "(stereo not drawn) [Example 175, 6-chloro-5′-(3-chloro-5-fluorophenyl)-2′-(4,6-dimethoxypyridin-3-yl)-3′-isopropyl-3′H-spiro[dihydroindole-3,4′-pyrrolo[3,4-d]imidazole]-2,6′(5′H)-dione]", "inhibitory effect on MDM2 compared with positive control compound HDM201": "better"}
    ]}
  ]
}
